Measurements published in patent US11071788B2, “Antibody drug conjugates of kinesin spindel protein (KSP) inhibitors with antiB7H3-antibodies” (BAYER PHARMA AKTIENGESELLSCHAFT, priority 2015, dated 2021).

What was measured:
[1] = tested on: NCI-H292; assay: Cytotoxicity MTT assay, NCI-H292; format: cell-based, human; conditions: Homo sapiens, NCI-H292, MTT assay
Description: (§1) Table 2 below lists the IC50 values of representative working examples from the assay described and the corresponding cytotoxicity data (MTT assay).

[2] = Cell permeability flux assay using Caco-2 cells; format: in vitro ADME; conditions: human; Caco-2, 2 hours incubation
[3] = tested on: KPL4; assay: Cytotoxicity MTT assay, KPL4; format: cell-based; conditions: KPL4, MTT assay
Description: as §1

[4] = tested on: Raji: human Burkitt's lymphoma cells, B7H3-negative; assay: CTG cytotoxicity assay of anti-B7H3 ADCs, Raji; format: cell-based; conditions: 72 h incubation
Procedure: The analysis of the cytotoxic effects of the anti-B7H3 ADCs was carried out with various cell lines:
Raji: human Burkitt's lymphoma cells, DMSZ-ACC-319, standard medium: RPMI 1640; (Biochrom; # FG 1215, with stable glutamine)+10% FCS (Biochrom; # S0415), B7H3-negative.
The cells were cultivated by the standard method as stated by the American Tissue Culture Collection (ATCC) for the cell lines in question.
The cells were cultivated according to the standard method using the growth media listed under C-1. […] In a parallel plate, the cell vitality was determined at the start of the drug treatment (day 0) using the Cell Titer Glow (CTG) Luminescent Cell Viability Assay (Promega #G7573 and #G7571). To this end, 100 μl of the […] were added per cell batch, the plates were then covered with aluminium foil, shaken on the plate shaker at 180 rpm for 2 minutes, allowed to stand on the laboratory bench for 8 minutes and then measured using a luminometer (Victor X2, Perkin Elmer). The substrate detects the ATP content in the living cells, generating a luminescence signal of which the height is directly proportional to the vitality of the cells. […] From the measured data, the IC^50 of the growth inhibition in comparison to day 0 was calculated using the DRC (dose response curve) analysis spreadsheet with a 4-parameter fit. […]

[5] = tested on: MCF-7: human breast cancer cells, B7H3-positive; assay: CTG cytotoxicity assay of anti-B7H3 ADCs, MCF-7; format: cell-based; conditions: MCF7, 72 h incubation, growth inhibition vs day 0
Procedure: The cells were cultivated according to the standard method using the growth media listed under C-1. […] The cells were then incubated in an incubator at 37° C., and 5% carbon dioxide. In a parallel plate, the cell vitality was determined at the start of the drug treatment (day 0) using the Cell Titer Glow (CTG) Luminescent Cell Viability Assay (Promega #G7573 and #G7571). To this end, 100 μl of the substance were added per cell batch, the plates were then covered with aluminium foil, shaken on the plate shaker at 180 rpm for 2 minutes, allowed to stand on the laboratory bench for 8 minutes and then measured using a luminometer (Victor X2, Perkin Elmer). The substrate detects the ATP content in the living cells, generating a luminescence signal of which the height is directly proportional to the vitality of the cells. […] From the measured data, the IC^50 of the growth inhibition in comparison to day 0 was calculated using the DRC (dose response curve) analysis spreadsheet with a 4-parameter fit.

Structure (SMILES) | IC50 [1] [nM] | Papp B→A at 2 h [2] [×10⁻⁶ cm/s] | IC50 [3] [nM] | IC50 [4] [nM] | IC50 [5] [nM]
CC(C)(C)[C@H](c1cc(-c2cc(F)ccc2F)cn1Cc1ccccc1)N(CC[C@H](N)C(=O)NCCNC(=O)CNC(=O)C[C@@H](SC[C@H](N)C(=O)O)C(=O)O)C(=O)CO (racemic) [Example M26, 4-[(2-{[2-({(2S)-2-Amino-4-[{(1R)-1-[1-benzyl-4-(2,5-difluorophenyl)-1H-pyrrol-2-yl]-2,2-dimethylpropyl}(glycoloyl)amino]butanoyl}amino)ethyl]amino}-2-oxoethyl)amino]-2-{[(2R)-2-amino-2-carboxyethyl]sulfanyl}-4-oxobutanoic acid-trifluoroacetic acid (1:1)] | 63.8 | 1.3 |  |  | 
CC(C)(C)[C@H](c1cc(-c2cc(F)ccc2F)cn1Cc1ccccc1)N(CC[C@H](N)C(=O)NC(CCC(=O)O)C(=O)O)C(=O)CO.O=C(O)C(F)(F)F (stereo in doubt) [Example M25, N-{(2S)-2-Amino-4-[{(1R)-1-[1-benzyl-4-(2,5-difluorophenyl)-1H-pyrrol-2-yl]-2,2-dimethylpropyl}(glycoloyl)amino]butanoyl}-L-glutamic acid-trifluoroacetic acid (1:1)] | 500 | 0.81 | 500 |  | 
CC(C)(C)[C@H](c1cc(-c2cc(F)ccc2F)cn1Cc1ccccc1)N(CCCN)C(=O)CO [M09, N-(3-Aminopropyl)-N-{(1R)-1-[1-benzyl-4-(2,5-difluorophenyl)-1H-pyrrol-2-yl]-2,2-dimethylpropyl}-2-hydroxyacetamide] |  |  |  | 0.03 | 0.03
